# Experiments:
# Brain uptake index = format: in vivo, rat; conditions: data not shown
# H+/OC antiporter = test: DPHM uptake in BMECs after inflammatory cytokine treatment; conditions: cytokine 0.1–30 ng/ml, 24 h; DPHM 30 μM, 30 s
Compound,"Brain uptake of reference compound, control vs LPS rats (Brain uptake index)",Effect on DPHM uptake into BMECs (H+/OC antiporter)
O=C(O)Cc1ccccc1Nc1c(Cl)cccc1Cl [diclofenac],similar,–
TNF-α,–,little effect
IL-1β: recombinant human interleukin-1β,–,little effect

# — paper PMC8474606 (Brain, Behavior, & Immunity - Health, 2020)
